Measured values taken from patent publication US9937165B2, “Pharmacological chaperones for treating obesity” (Amicus Therapeutics, Inc., priority 2005, dated 2018).
Square brackets hold non-standard residues; d marks the D form. d2Nal = N[C@H](Cc1ccc2ccccc2c1)C(=O)O; Nle = CCCC[C@H](N)C(=O)O

Columns and labels:
[1] = in vivo; cited from earlier work
hMC4R mutant S58C = molecular target: T1, hMC4R mutant S58C (Homo sapiens, UniProt P32245, S58C); assay: Pharmacological chaperone assay, cell surface expression by FACS, mutant S58C; assay type: cell-based
T1 construct: expressed in transfected cells; host or cells: HEK 293 cells, transient transfection
T1 sequence (P32245 whole entry S58C): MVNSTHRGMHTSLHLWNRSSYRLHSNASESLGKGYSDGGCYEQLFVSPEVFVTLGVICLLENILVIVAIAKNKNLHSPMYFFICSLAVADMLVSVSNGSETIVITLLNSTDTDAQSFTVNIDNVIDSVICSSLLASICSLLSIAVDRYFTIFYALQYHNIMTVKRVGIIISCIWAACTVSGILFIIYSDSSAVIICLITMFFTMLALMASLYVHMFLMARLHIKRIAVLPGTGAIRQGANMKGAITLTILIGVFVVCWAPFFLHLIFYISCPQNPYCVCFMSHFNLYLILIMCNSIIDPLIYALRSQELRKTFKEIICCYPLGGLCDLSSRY
Experimental: (§1) HEK 293 cells were transiently transfected with wild-type (WT) or the following hMC4R mutants double tagged with 3HA and Venus (Enhanced Yellow Green Fluorescent Protein; EYFP): S58C; N62S; R165W; R165Q, and P299H.
(§2) FACS analysis was performed after fluorescently labeling cells with primary anti-HA.11 antibody (mouse; 1:1000 dilution) and the secondary antibody coupled to Alexa 647 (goat anti-mouse; 1:1000 dilution) dilution. Live cells (propidium iodide negative) were sorted into the following two relevant populations: • P4: Total YFP positive cells (representative of total MC4R expression) • P5: Percent of cells positive for both YFP and Alexa 647 (Alexa and YFP positive cells)/(YFP positive cells+Alexa and YFP positive cells) (representative of cell surface expression)
(§3) Briefly, cells harboring each of the above-referenced MC4R mutants (transfected as described in Example 3) were cultured with each of the antagonist compounds at concentrations of 1.0 μM and 10 μM for 12 h and evaluated for cell surface expression of MC4R using fluorescent activated cell sorting analysis as described above. Cell surface expression levels are compared between treatment and basal conditions. Percent Gain is determined according to the following: [Gain=[(% of surface expression (with treatment)−% of surface expression (w/o treatment))/% of surface expression (w/o treatment)]*100.

hMC4R mutant N62S = molecular target: T2, hMC4R mutant N62S (Homo sapiens, UniProt P32245, N62S); assay: Pharmacological chaperone assay, cell surface expression by FACS, mutant N62S; assay type: cell-based; details: 12 h
T2 construct: expressed in transfected cells; host or cells: HEK 293 cells, transient transfection
T2 sequence (P32245 whole entry N62S): as the sequence (P32245 whole entry S58C) above, with C58S, N62S counted along it
Experimental: as §1, §2, §3

hMC4R mutant R165W = molecular target: T3, hMC4R mutant R165W (Homo sapiens, UniProt P32245, R165W); assay: Pharmacological chaperone assay, cell surface expression by FACS, mutant R165W; assay type: cell-based
T3 construct: expressed in transfected cells; host or cells: HEK 293 cells, transient transfection
T3 sequence (P32245 whole entry R165W): as the sequence (P32245 whole entry S58C) above, with C58S, R165W counted along it
Experimental: as §1, §2, §3

hMC4R mutant R165Q = molecular target: T4, hMC4R mutant R165Q (Homo sapiens, UniProt P32245, R165Q); assay: Pharmacological chaperone assay, cell surface expression by FACS, mutant R165Q; assay type: cell-based; details: 12 h
T4 construct: expressed in transfected cells; host or cells: HEK 293 cells, transient transfection
T4 sequence (P32245 whole entry R165Q): as the sequence (P32245 whole entry S58C) above, with C58S, R165Q counted along it
Experimental: as §1, §2, §3

hMC4R mutant P299H = molecular target: T5, hMC4R mutant P299H (Homo sapiens, UniProt P32245, P299H); assay: Pharmacological chaperone assay, cell surface expression by FACS, mutant P299H; assay type: cell-based; details: 12 h
T5 construct: expressed in transfected cells; host or cells: HEK 293 cells, transient transfection
T5 sequence (P32245 whole entry P299H): as the sequence (P32245 whole entry S58C) above, with C58S, P299H counted along it
Experimental: as §1, §2, §3

[2] = tested on: WT and mutant hMC4R (S58C; N62S; R165W; R165Q; P299H) in HEK 293 cells; assay: Chemical chaperone assay, MC4R cell surface expression by FACS; assay type: cell-based, human; details: 1% DMSO, 12 hours
Experimental: as §1
WT and transiently transfected cells were incubated in the presence or absence of 1% DMSO for 12 hours prior to evaluation of MC4R cells surface expression.
as §2

[3] = molecular target: MC4R as compared to the MC3R (Homo sapiens, UniProt P32245); details: cited from earlier work
Sequence of MC4R as compared to the MC3R (P32245 whole entry): as the sequence (P32245 whole entry S58C) above, with C58S counted along it

[4] = molecular target: MC4R as compared to the MC5R (Homo sapiens, UniProt P32245); details: cited from earlier work
Sequence of MC4R as compared to the MC5R (P32245 whole entry): as the sequence (P32245 whole entry S58C) above, with C58S counted along it

MC4R = MC4R (Homo sapiens, UniProt P32245); details: MC4R antagonist; cited from earlier work
Sequence of MC4R (P32245 whole entry): as the sequence (P32245 whole entry S58C) above, with C58S counted along it

MC4R over MC3R = MC4R over MC3R (Homo sapiens, UniProt P32245); details: cited from earlier work
Sequence of MC4R over MC3R (P32245 whole entry): as the sequence (P32245 whole entry S58C) above, with C58S counted along it

Q: For `O=C(N[C@H](Cc1ccc(Cl)cc1)C(=O)N1CCC(Cn2cncn2)(C2CCCCC2)CC1)[C@H]1Cc2ccccc2CN1` [Compound 1, THIQ], which “PK %F” value [1] is on record?
A: %F 14

Q: What about the “PK Cl” value [1] of the same molecule?
A: Cl 84 mLmin/kg

Q: What about the “PK Vd” value [1] of the same molecule?
A: Vd 3.6 L/kg

Q: What about the “PK t½” value [1] of the same molecule?
A: t½ 0.6 h

Q: With `CC(CN1CCN(CC(c2ccc(F)cc2)N2CCN(C)CC2)CC1)C(=O)c1ccccc1` (stereo not drawn) [Compound 3] as the molecule, how does the “% Gain in cell surface expression” value (hMC4R mutant S58C; 1 μM, 12 h) read?
A: 77.5%

Q: What about the “% Gain in cell surface expression” value (hMC4R mutant S58C; 10 μM, 12 h) of the same molecule?
A: 130%

Q: And the “% Gain in cell surface expression” value (hMC4R mutant N62S; 1 μM)?
A: 25%

Q: What about the “% Gain in cell surface expression” value (hMC4R mutant N62S; 10 μM) of the same molecule?
A: 343.75%

Q: And the “% Gain in cell surface expression” value (hMC4R mutant N62S; 10 μM, listed as compound depicted in FIG. 5)?
A: more potent

Q: And the “% Gain in cell surface expression” value (hMC4R mutant R165W; 1 μM, 12 h)?
A: 467%

Q: And the “% Gain in cell surface expression” value (hMC4R mutant R165W; 10 μM, 12 h)?
A: 675%

Q: And the “% Gain in cell surface expression” value (hMC4R mutant R165Q; 1 μM)?
A: 300%

Q: What about the “% Gain in cell surface expression” value (hMC4R mutant R165Q; 10 μM) of the same molecule?
A: 508%

Q: And the “% Gain in cell surface expression” value (hMC4R mutant P299H; 1 μM)?
A: 27.78%

Q: And the “% Gain in cell surface expression” value (hMC4R mutant P299H; 10 μM)?
A: 77.78%

Q: And the “% Gain in cell surface expression” value (hMC4R mutant P299H; 10 μM, listed as compound shown in FIG. 5)?
A: only a small effect

Q: Which results are given for `Br.COc1ccc([N+](=O)[O-])cc1CSc1ccccc1C1=NCCCN1` [Compound 4]?
A: % Gain in cell surface expression (hMC4R mutant S58C; 1 μM, 12 h): 60%; % Gain in cell surface expression (hMC4R mutant S58C; 10 μM, 12 h): 130%; % Gain in cell surface expression (hMC4R mutant N62S; 1 μM): 6.25%; % Gain in cell surface expression (hMC4R mutant N62S; 10 μM): 212.5%; % Gain in cell surface expression (hMC4R mutant R165W; 1 μM, 12 h): 150%; % Gain in cell surface expression (hMC4R mutant R165W; 10 μM, 12 h): 675%; % Gain in cell surface expression (hMC4R mutant R165Q; 1 μM): 91.7%; % Gain in cell surface expression (hMC4R mutant R165Q; 10 μM): 508%; % Gain in cell surface expression (hMC4R mutant P299H; 1 μM): 11.11%; % Gain in cell surface expression (hMC4R mutant P299H; 1 μM, listed as compound shown in FIG. 6): no effect; % Gain in cell surface expression (hMC4R mutant P299H; 10 μM): 38.9%; % Gain in cell surface expression (hMC4R mutant P299H; 10 μM, listed as compound shown in FIG. 6): no effect

Q: For `COc1ccc(Cl)cc1Nc1nc(-c2sc(NC(=O)c3ccccc3)nc2C)cs1` [Compound 5], which “% Gain in cell surface expression” value (hMC4R mutant S58C; concentration not given) is on record?
A: 31.25%

Q: What about the “% Gain in cell surface expression” value (hMC4R mutant R165W; concentration not given) of the same molecule?
A: 28.95%

Q: Which “enhancement of MC4R cell surface expression” value [2] does the source give for `C[S+](C)[O-]` [DMSO] here?
A: No significant enhancement

Q: Which “selectivity for the MC4R as compared to the MC3R” value [3] does the source give for “Ac-Nle-Gly-Lys-D-Nal(2)-Arg-Trp-Gly-NH(2) (Ac-[Nle]GK[d2Nal]RWG-NH2; SMILES CCCC[C@H](NC(C)=O)C(=O)NCC(=O)N[C@@H](CCCCN)C(=O)N[C@H](Cc1ccc2ccccc2c1)C(=O)N[C@@H](CCCNC(=N)N)C(=O)N[C@@H](Cc1c[nH]c2ccccc12)C(=O)NCC(N)=O)” here?
A: 34 fold

Q: And the “selectivity for the MC4R as compared to the MC5R” value [4]?
A: 109 fold

Q: For “Ac-Nle-Gly-Lys-D-Phe-Arg-Trp-Gly-NH(2) (Ac-[Nle]GK[dF]RWG-NH2; SMILES CCCC[C@H](NC(C)=O)C(=O)NCC(=O)N[C@@H](CCCCN)C(=O)N[C@H](Cc1ccccc1)C(=O)N[C@@H](CCCNC(=N)N)C(=O)N[C@@H](Cc1c[nH]c2ccccc12)C(=O)NCC(N)=O)”, which “selectivity for the MC4R as compared to the MC3R” value [3] is on record?
A: 90 fold

Q: What about the “selectivity for the MC4R as compared to the MC5R” value [4] of the same molecule?
A: 110 fold

Q: For “Ac-Nle-c[Asp-Che-DNal(2′)-Arg-Trp-Lys-NH(2) [SHU9119 analogue, cyclic MC4R antagonist of Grieco et al., J Med Chem 2002]”, which IC50 (MC4R) is on record?
A: 480 pM

Q: What about the “selectivity over MC3R” value (MC4R over MC3R) of the same molecule?
A: 100 fold

Q: For “Ac-Nle-c[Asp-Cpe-DNal(2′)-Arg-Trp-Lys-NH(2) [SHU9119 analogue, cyclic MC4R antagonist of Grieco et al., J Med Chem 2002]”, which IC50 (MC4R) is on record?
A: 510 pM

Q: What about the “selectivity over MC3R” value (MC4R over MC3R) of the same molecule?
A: 200 fold
